Source: ChEMBL document CHEMBL1641394, “Terpenoids from the aerial parts of Parasenecio deltophylla” (J Nat Prod, 2010)

Experiments:
[1] = Antioxidant activity assessed as ABTS radical scavenging activity by decolorization assay; type: functional
[2] = tested on: Radical scavenging activity; assay: Antioxidant activity assessed as DPPH radical scavenging activity; type: functional
HL-60 = assay: Cytotoxicity against human HL60 by MTT assay; type: functional, cell-based
HepG2 = assay: Cytotoxicity against human HepG2 by MTT assay; type: functional, cell-based

Row | IC50 [1] [µM] | IC50 [2] [µM] | Compound | IC50 (HL-60) [µM] | IC50 (HepG2) [µM]
1 | > 200 | > 200 | CCCCCCCCCCCCCCCC(=O)O[C@H]1CC(C)(C)C2=CC(=O)O[C@]2(C)C1 | 47.5 | 
2 | 13.2 | 13.2 | Cc1c(C)c2c(c(C)c1O)CCC(C)(C(=O)O)O2 (configuration not stated) [TROLOX] |  | 
3 | > 200 | > 200 | C/C=C(/C)C(=O)OCc1c(C(C)=O)c(O)c(OC)c2c1[C@@H](C)CC=C2 |  | 
4 | > 200 | > 200 | C/C=C(/C)C(=O)OCc1c(C(C)=O)c(O)c(OC)c2c1[C@@H](C)[C@@H]1O[C@@H]1[C@H]2O |  | 
5 | > 200 | > 200 | C/C=C(/C)C(=O)OCc1c2c(c(OC)c3occ(C)c13)C(=O)[C@H]1O[C@H]1[C@@H]2C | 49.8 | 27.8
6 | > 200 | > 200 | C/C=C(/C)C(=O)OCc1c(C(C)=O)c(O)c(OC)c2c1[C@@H](C)[C@@H](O)C=C2 |  | 
7 |  |  | CO[C@@]12[C@H](COC(N)=O)C3=C(C(=O)C(C)=C(N)C3=O)N1C[C@@H]1N[C@@H]12 [MITOMYCIN] | 1.5 | 5.4
